Assay [1] relates to NO production. In words: NO production of LPS-stimulated RAW264.7 cells (Griess' method). To be noted: Mus musculus, LPS (10 μg/ml), NO in culture medium after 24 hours. The class given is cell-based. From the text: (§1) When various cells are stimulated with LPS, NF-κB is activated which results in the expression and induction of proteins represented by […] and TNF-α, and thereby the cells start to produce NO and TNF-α.
The Griess' method utilizing a diazo reaction has been known as a method for indirectly knowing that a cell actually produces NO. In the Griess' method, the Griess' reagent in which naphthylethylenediamine and sulfanilic acid have been mixed is reacted with NO2 ion in the culture medium, and the color development thereof is measured by absorbance at 540 nm. The amount of NO accumulated in the cell culture medium after 24 hours was measured in this method with a result that the production of NO released from LPS (10 μg/ml)-stimulated RAW264.7 cells (ATCC, TIB-71) derived from macrophage is suppressed by the compound obtained in Example 4 (FIG. 4A).
(§2) The inhibitory activity of the compounds shown in the Examples is expressed as an IC50 value.

Assay [2] relates to TNF-α production. Description: TNF-α production of LPS-stimulated RAW264.7 cells (ELISA). The format is cell-based. To be noted: Mus musculus, LPS (10 μg/ml) for 4 hours.
Text: as §1, §2

The structures appear in SMILES notation.

On to `COC1=C(OC)C(=O)C(Cc2ccc(CCC(=O)N3CCSCC3)cc2)=C(C)C1=O` [Example 4, N-[3-[4-(5,6-dimethoxy-3-methyl-1,4-benzoquinon-2-ylmethyl)phenyl]propionyl]thiomorpholine], for which the 50% inhibitory concentration (IC50) in assay [1] and in assay [2] was 21 µM in each case.
For `COC1=C(OC)C(=O)C(Cc2ccc(CCC(=O)N3CCCCC3)cc2)=C(C)C1=O` [Example 7, N-[3-[4-(5,6-dimethoxy-3-methyl-1,4-benzoquinon-2-ylmethyl)phenyl]propionyl]piperidine], the IC50 in assay [1] was 15 µM; in assay [2], 22 µM.
In the same order, the values of `COC1=C(OC)C(=O)C(Cc2ccc(CCC(=O)NC(C)C)cc2)=C(C)C1=O` [Example 9, N-[3-[4-(5,6-dimethoxy-3-methyl-1,4-benzoquinon-2-ylmethyl)phenyl]propionyl]isopropylamine] are 10 µM and 16 µM.
Consider `COC1=C(OC)C(=O)C(Cc2cccc(CCC(=O)NC(C)C)c2)=C(C)C1=O` [Example 35, N-[3-[3-(5,6-dimethoxy-3-methyl-1,4-benzoquinon-2-ylmethyl)phenyl]propioyl]isopropylamine], for which the half-inhibitory concentration (IC50) in assay [1] and in assay [2] was 19 µM throughout.
As to `COC1=C(OC)C(=O)C(Cc2ccc(CC(=O)N3CCOCC3)cc2)=C(C)C1=O` [Example 53, N-[4-(5,6-dimethoxy-3-methyl-1,4-benzoquinon-2-ylmethyl)phenylacetyl]morpholine], the IC50 in assay [1] and in assay [2] was 19 µM in each case.
For `COC1=C(OC)C(=O)C(Cc2ccc(CCC(=O)N3CCC(C)CC3)cc2)=C(C)C1=O` [Example 81], the IC50 in assay [1] and in assay [2] was 13 µM throughout.
In the case of `COC1=C(OC)C(=O)C(Cc2ccc(CCC(=O)N3CCCCC3C)cc2)=C(C)C1=O` (stereo not shown) [Example 83], the IC50 amounted to 6 µM in assay [1] and 9 µM in assay [2].
Regarding `COC1=C(OC)C(=O)C(Cc2ccc(CCC(=O)N3CCCC(C)C3)cc2)=C(C)C1=O` (stereo not shown) [Example 85], the values for the IC50 in assay [1] and in assay [2] were 21 µM and 26 µM, respectively.
Take `COC1=C(OC)C(=O)C(Cc2ccc(CCC(=O)Nc3ccc(OC)cc3)cc2)=C(C)C1=O` [Example 94]: the IC50 came out at 9 µM in assay [1] and 11 µM in assay [2].
Take `COC1=C(OC)C(=O)C(Cc2ccc(CCC(=O)Nc3ccc(OC)c(OC)c3)cc2)=C(C)C1=O` [Example 103]: the IC50 in assay [1] and in assay [2] was 31 µM throughout.
Consider `COC1=C(OC)C(=O)C(Cc2ccc(CCC(=O)N3CCC[C@H]3C(N)=O)cc2)=C(C)C1=O` [Example 106], for which the values for the IC50 in assay [1] and in assay [2] were 17 µM and 25 µM, respectively.
Turning to `COC1=C(OC)C(=O)C(Cc2ccc(CCC(=O)N[C@@H](C)c3ccccc3)cc2)=C(C)C1=O` [Example 120], the IC50 stood at 7 µM in assay [1] and 11 µM in assay [2].
Take `COC1=C(OC)C(=O)C(Cc2ccc(CCC(=O)N3CC(C)CC(C)C3)cc2)=C(C)C1=O` (stereo not shown) [Example 137]: the IC50 in assay [1] and in assay [2] was 20 µM each time.
Consider `COC1=C(OC)C(=O)C(Cc2ccc(CCC(=O)N3CCC(C(C)=O)(c4ccccc4)CC3)cc2)=C(C)C1=O` [Example 168], for which the IC50 in assay [1] and in assay [2] was 17 µM throughout.

The values are drawn from patent US6943196B1, “NF-κB inhibitor comprising phenylmethyl benzoquinone as the active ingredient” (Daiichi Suntory Pharma Co., Ltd., priority 1998, dated 2005).
